Where two headings read alike, the source gives them in different places.
Columns and labels:
PI3K δ [1] = assay: Scintillation proximity assay, PI3Kδ enzymatic activity; type: biochemical, human
PI3K δ [2] = target: PI3K δ (Homo sapiens, UniProt O00329); assay: as above; type: biochemical; details: PI3K δ; 65 μM ATP; read-out: Enzymatic potency IC50
Hck = Hck (Homo sapiens, UniProt P08631); assay: Hck kinase inhibition; type: biochemical
Caco-2 permeability = type: in vitro ADME; details: human
Text: (§1) 36 CLint: intrinsic clearance in liver microsomes. h/m: human/mouse. Papp: apparent permeability. uPPB:
(§2) 37 unbound plasma protein binding. […]

[3] = Human PK prediction based on allometric scaling; details: data not shown
[4] = Unbound plasma protein binding, mouse; type: in vitro ADME; details: unbound fraction
Text: as §1, §2

[5] = tested on: pAkt in CD19+ B cells, human whole blood; assay: Anti-IgM-induced pAkt in human whole blood; type: cell-based; details: B-cell, 5 min, healthy donors
Description: Human whole blood was incubated with PI3Kδ inhibitors for 30 min and stimulated with 30 μg/ml anti-IgM (Jackson Immuno Research, West Grove, PA, USA) for 5 min at 37°C. […] Cell were stained with rabbit anti-pAkt (Ser473) followed by the Alexa647-conjugated F(ab′)2 goat anti-rabbit IgG (Invitrogen, Carlsbad, CA, USA), and anti-CD19-PE (BD Biosciences Pharmingen, San Diego, CA, USA). CD19^+ cells were gated for pAkt analysis.

CD123+/CD303+ pDC cells = assay: Plasmacytoid dendritic cell IFN-α release assay (CpG ODN 2395); type: cell-based, human
Description: Plasmacytoid dendritic cells were isolated from PBMC of healthy volunteers by negative selection using pDC purification kit (Miltenyi Biotech, Bergisch Gladbach, Germany). […] IFN-α in the supernatants was measured from the culture supernatants with Verikine ELISA kit (PBL Assay Science, Piscataway, NJ, USA).

pAkt in Ramos B cells = assay: BCR-crosslinking (anti-IgM)-induced Akt phosphorylation in Ramos cells; type: cell-based; details: Homo sapiens, 0.25 h, anti-IgM 15 min
CD19+ B cells = assay: B cell proliferation assay (anti-IgM + IL-4, [3H]thymidine); type: cell-based, human; details: for IC50: anti-IgM and IL-4, 4 days
Description: CD19^+ B cells were isolated from PBMC of healthy volunteers by negative selection using the B cell purification kit II (Miltenyi Biotech, Bergisch Gladbach, Germany) and following manufacturer’s instructions. […] Proliferation was assessed by a multiplate beta counter (Perkin Elmer, Shelton, CT, USA).

[6] = In vivo pharmacokinetics in mouse; details: estimated
[7] = Intrinsic clearance in human liver microsomes; type: in vitro ADME; details: read-out: In vitro Clint
Text: as §1, §2

[8] = tested on: CD4+CD45RA− memory T-cells; assay: T-cell cytokine release assay (anti-CD3/anti-CD28); type: cell-based, human; details: for IC50: Homo sapiens, T-cell, 120 h, memory T-cells, anti-CD3 and anti-CD28, 5 days
Description: Purified T-cells were incubated with PI3Kδ inhibitors for 1 h, and stimulated with 5 μg/ml anti-CD3 and 2 μg/ml anti-CD28 for 5 days. Cytokines in the supernatants were measured with Luminex® xMAP® multiplex bead assay kits (Bio-Rad, Hercules, CA, USA).

B cell/PBMC co-culture = assay: BioMAP B–T system (B cell/PBMC co-culture, anti-IgM and mild TCR stimulation); type: cell-based, human; details: 84 h
Description: Positively selected primary normal human CD19^+ B cells and CD4^+ T-cells were obtained from AllCells (Emeryville, CA, USA). PBMC were isolated from buffy coats (Stanford Blood Center, Stanford, CA, USA).
The levels of readout parameters were measured by ELISA ([14], [15]). Measurement values for each biomarker readout in a compound-treated sample were divided by the mean value from eight DMSO control samples (from the same plate) to generate a ratio. All ratios were then log10 transformed and plotted (BioMAP profile). Overt cytotoxicity of test compounds was assessed by total cell protein staining sulforhodamine B (Sigma-Aldrich, St. Louis, MO, USA) for adherent cells, or by cell viability staining Alamar Blue (Invitrogen, Carlsbad, CA, USA) for non-adherent cells.
This system models both T-cell-dependent B cell activation and class-switching as would occur in a germinal center, and B-cell-dependent T-cell responses, such as cytokine release ([13]).

[9] = tested on: 12 BioMAP human primary cell co-culture systems; assay: BioMAP profiling in 12 human primary cell co-culture systems; details: any concentration (from 10 to 33.3 μM as printed), any culture system
Description: Overt cytotoxicity of test compounds was assessed by total cell protein staining sulforhodamine B (Sigma-Aldrich, St. Louis, MO, USA) for adherent cells, or by cell viability staining Alamar Blue (Invitrogen, Carlsbad, CA, USA) for non-adherent cells.
Overtly adverse effects of
Proliferation of PBMC (T cells) was
140 quantiﬁ ed by Alamar blue reduction and proliferation of adherent cell types was quantiﬁ ed by SRB
PBMC viability was assessed by adding Alamar blue (Invitrogen, Camarillo, CA) to PBMC
SRB was performed by removing supernatants from plates, washing plates with
Plates are washed ag ain with PBS then,
Overtly cytotoxic compounds are

[10] = tested on: panel of 278 additional kinases; assay: Kinase selectivity profile at 10 µM; type: biochemical; details: significant inhibition = >50%, ATP at Km
[11] = tested on: pAkt in B220+ B cells, mouse whole blood; assay: Anti-IgD-induced pAkt in mouse whole blood (in vitro); type: cell-based; details: for IC50: B-cell, mouse whole blood in vitro, anti-IgD
Description: Whole blood withdrawn from C57BL/6N mice (Charles River Laboratories, L’Arbresle, France) was incubated with PI3Kδ inhibitors for 30 min and stimulated with goat anti-mouse IgD antiserum (eBioscience, San Diego, CA, USA) for 7 min at 37°C. […] Cells were stained with rabbit anti-pAkt (Ser473) for 1 h followed by anti-IgD-FITC, anti-B220-PerCP-Cy5.5 (all BD Biosciences Pharmingen, San Diego, CA, USA), and donkey anti-rabbit IgG-Alexa647 (Invitrogen, Carlsbad, CA, USA) for 30 min at room temperature. B220^+IgD^+ cells were gated for pAkt analysis.

[12] = Unbound plasma protein binding, human; type: in vitro ADME; details: unbound fraction
Text: as §1, §2

PAK3 = PAK3 (Homo sapiens, UniProt O75914); assay: PAK3 kinase inhibition; type: biochemical
[13] = tested on: CD69 on CD19+ cells, PBMCs from SLE patients; assay: Anti-IgM-induced CD69 up-regulation in PBMCs from SLE patients; type: cell-based; details: Homo sapiens, PBMC, 18 h, SLE patient PBMC, anti-IgM 18 h
Description: Heparinized human blood or buffy-coat prepared from healthy donors was obtained from the “Center de transfusion sanguine” of Geneva (Switzerland). Cryopreserved PBMCs from SLE patients were obtained from Asterand (Detroit, MI, USA). […] Studies were approved by Merck Serono ethics committee.
(A) Peripheral blood from healthy donors were collected in heparinized tubes and stimulated with anti-IgM for 5 min. Intracellular pAkt gated on CD19^+ cells were analyzed by flow cytometry. […] CD69 up-regulation on CD19^+ cells were analyzed by flow cytometry. Mean fluorescent intensity (MFI) from basal and stimulated conditions without inhibitor were used as 100% of activity. […]

pAkt = assay: Imax PK/PD model of BCR activation-induced pAkt response; details: mouse, estimated in vivo PD parameter (pAkt)
Text: An Imax PK/PD model describing BCR activation-induced pAkt response was established using data from in vitro and ex vivo mouse whole blood assays.

PAK3, sequence (O75914 whole entry, species assumed): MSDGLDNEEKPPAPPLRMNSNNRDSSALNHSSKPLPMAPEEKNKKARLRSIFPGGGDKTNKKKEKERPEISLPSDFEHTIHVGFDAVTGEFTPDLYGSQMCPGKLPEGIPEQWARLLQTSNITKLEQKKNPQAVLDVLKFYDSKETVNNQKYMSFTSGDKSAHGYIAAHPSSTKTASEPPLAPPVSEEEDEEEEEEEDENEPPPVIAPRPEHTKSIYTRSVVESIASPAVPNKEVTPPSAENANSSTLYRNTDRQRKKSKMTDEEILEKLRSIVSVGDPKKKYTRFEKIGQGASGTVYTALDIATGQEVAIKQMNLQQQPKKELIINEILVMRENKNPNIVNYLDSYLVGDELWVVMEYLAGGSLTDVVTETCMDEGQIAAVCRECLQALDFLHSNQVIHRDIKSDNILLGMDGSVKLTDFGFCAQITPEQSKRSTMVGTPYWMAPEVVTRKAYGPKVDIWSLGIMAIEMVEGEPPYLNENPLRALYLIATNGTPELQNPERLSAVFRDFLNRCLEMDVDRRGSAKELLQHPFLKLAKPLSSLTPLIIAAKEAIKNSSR
Hck, sequence (P08631 whole entry, species assumed): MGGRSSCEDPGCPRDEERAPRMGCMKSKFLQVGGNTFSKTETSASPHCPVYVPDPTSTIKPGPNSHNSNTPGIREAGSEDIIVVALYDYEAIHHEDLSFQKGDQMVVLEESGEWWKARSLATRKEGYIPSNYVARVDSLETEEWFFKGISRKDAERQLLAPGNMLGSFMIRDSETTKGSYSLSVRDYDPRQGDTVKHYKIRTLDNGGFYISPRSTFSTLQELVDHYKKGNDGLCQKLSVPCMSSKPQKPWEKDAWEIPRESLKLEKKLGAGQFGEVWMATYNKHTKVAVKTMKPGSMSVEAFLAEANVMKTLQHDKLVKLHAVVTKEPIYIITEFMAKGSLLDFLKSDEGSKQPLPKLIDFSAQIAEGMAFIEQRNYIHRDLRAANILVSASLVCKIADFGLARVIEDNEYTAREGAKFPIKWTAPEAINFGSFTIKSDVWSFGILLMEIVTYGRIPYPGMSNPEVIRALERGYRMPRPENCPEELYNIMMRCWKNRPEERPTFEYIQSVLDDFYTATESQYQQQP
PI3K δ (Homo sapiens, UniProt O00329), sequence (O00329 whole entry): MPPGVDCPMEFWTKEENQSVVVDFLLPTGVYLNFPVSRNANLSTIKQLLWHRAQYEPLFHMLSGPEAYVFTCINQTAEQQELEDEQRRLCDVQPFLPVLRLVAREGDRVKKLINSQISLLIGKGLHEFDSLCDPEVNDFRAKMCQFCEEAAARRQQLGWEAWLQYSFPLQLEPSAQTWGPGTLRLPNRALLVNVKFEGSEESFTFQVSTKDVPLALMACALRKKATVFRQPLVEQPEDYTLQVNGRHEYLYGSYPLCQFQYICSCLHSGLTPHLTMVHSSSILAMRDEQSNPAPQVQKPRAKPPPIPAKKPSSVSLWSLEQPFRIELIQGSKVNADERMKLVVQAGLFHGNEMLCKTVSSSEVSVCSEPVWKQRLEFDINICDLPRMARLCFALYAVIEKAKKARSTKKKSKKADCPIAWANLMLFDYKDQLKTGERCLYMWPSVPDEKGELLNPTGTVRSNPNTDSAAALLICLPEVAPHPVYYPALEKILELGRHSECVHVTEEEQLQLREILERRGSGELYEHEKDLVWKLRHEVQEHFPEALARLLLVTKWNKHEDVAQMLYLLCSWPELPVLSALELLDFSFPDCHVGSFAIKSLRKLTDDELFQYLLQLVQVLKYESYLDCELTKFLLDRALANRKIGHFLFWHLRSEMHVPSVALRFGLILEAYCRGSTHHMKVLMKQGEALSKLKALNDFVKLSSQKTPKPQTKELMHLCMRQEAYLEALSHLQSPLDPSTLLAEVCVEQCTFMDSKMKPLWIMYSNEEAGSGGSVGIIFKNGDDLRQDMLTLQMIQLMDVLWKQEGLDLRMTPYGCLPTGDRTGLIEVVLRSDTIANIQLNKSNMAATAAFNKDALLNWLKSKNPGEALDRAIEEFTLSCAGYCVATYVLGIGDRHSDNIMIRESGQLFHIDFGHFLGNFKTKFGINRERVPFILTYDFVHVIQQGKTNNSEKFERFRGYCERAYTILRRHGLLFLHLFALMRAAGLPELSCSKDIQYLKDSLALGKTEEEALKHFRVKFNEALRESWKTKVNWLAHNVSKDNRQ

O=C(c1nn([C@@H]2CCCN(CCN3CCOCC3)C2)c2c1CS(=O)(=O)c1cc(F)ccc1-2)N1CCOCC1 [MSC2364588, (R)-7-fluoro-3-(morpholin-4-ylcarbonyl)-1-[1-(2-morpholin-4-ylethyl)piperidin-3-yl]-1,4-dihydrothiochro-meno[4,3-c]pyrazole 5,5-dioxide]
Potency relative to MSC2360844 (PI3K δ [1]; all assays, cell types and in vitro enzymatic activity): 5–10 times
Potency relative to MSC2360844 (PI3K δ [1]; enzymatic and cellular contexts): 10 fold
IC50 (PI3K δ [2]): 15 nM
IC50 (Hck): > 10000 nM
Papp (Caco-2 permeability): 2.4 ×10⁻⁶ cm/s
efflux ratio (Caco-2 permeability): 1.6
Predicted human half-life / dosing frequency [3]: predicted to require twice daily dosing
uPPB % [4]: 65%
IC50 [5]: 32 nM
Suppression of IFNα production by pDCs (CD123+/CD303+ pDC cells; CpG oligodeoxynucleotide-induced, TLR9-mediated): suppressed
IC50 (CD123+/CD303+ pDC cells; Homo sapiens, Plasmacytoid dendritic cell, pDC, CpG ODN 2395 Type C, 18 h): 105 nM
IC50 (pAkt in Ramos B cells): 57 nM
Potency relative to MSC2360844 (CD19+ B cells; B cell function): 10 times
IC50 (CD19+ B cells; Homo sapiens, B-cell, 96 h): 7 nM
IC50 (CD19+ B cells): 6 nM
CL/F ([6]; C57BL/6N, plasma, po): 418 mL/min/kg
half-life ([6]; C57BL/6N, plasma, po): 36 min
Ka [6]: 1.6 h⁻¹
V/F [6]: 5.8 L/kg
microsomal CLint [7]: 21 µL/min/mg
IC50 ([8]; read-out: IC50 IL-6): 23 nM
IC50 ([8]; read-out: IC50 IL-10): 18 nM
IC50 ([8]; read-out: IC50 IL-17): 16 nM
IC50 ([8]; read-out: IC50 TNF-α): 57 nM
Potency relative to MSC2360844 ([8]; T-cell cytokines): 10 times
B cell proliferation and IgG secretion, IL-17A, IL-2 and TNFα release (B cell/PBMC co-culture): significantly and dose-dependently inhibited
IL-6 levels (B cell/PBMC co-culture): no effect
Cytotoxicity [9]: No signs of cytotoxicity
Inhibition of kinases in the panel [10]: impaired Hck and PAK3 activity
IC50 ([11]; average, read-out: average IC50 for pAkt): 35 nM
IC50 ([11]; representative experiment of Figure 5A, read-out: IC50 pAkt): 59 nM
Potency relative to MSC2360844 ([11]; mouse whole blood in vitro assay): approximately 10 folds
uPPB % [12]: 100%
IC50 (PAK3): > 10000 nM
IC50 ([13]; another donor (Figure 4C, right)): 12 nM
IC50 ([13]; one donor (Figure 4C, left)): 9 nM
IC50 (pAkt): 47 nM
